Measured values published in ChEMBL document CHEMBL5465560, “Selectivity Literature for EUbOPEN Chemogenomic Library” (2024).

Tests used:
[1] = biological target: T1, Serine/threonine-protein kinase Chk1 (Homo sapiens) (UniProt O14757); assay: Selectivity interaction (ActivX KiNativ screen (kinase selectivity in THP-1 cell lysates)) EUB0000639a CHEK1; type: subcellular; details: lysate
T1 sequence (whole entry): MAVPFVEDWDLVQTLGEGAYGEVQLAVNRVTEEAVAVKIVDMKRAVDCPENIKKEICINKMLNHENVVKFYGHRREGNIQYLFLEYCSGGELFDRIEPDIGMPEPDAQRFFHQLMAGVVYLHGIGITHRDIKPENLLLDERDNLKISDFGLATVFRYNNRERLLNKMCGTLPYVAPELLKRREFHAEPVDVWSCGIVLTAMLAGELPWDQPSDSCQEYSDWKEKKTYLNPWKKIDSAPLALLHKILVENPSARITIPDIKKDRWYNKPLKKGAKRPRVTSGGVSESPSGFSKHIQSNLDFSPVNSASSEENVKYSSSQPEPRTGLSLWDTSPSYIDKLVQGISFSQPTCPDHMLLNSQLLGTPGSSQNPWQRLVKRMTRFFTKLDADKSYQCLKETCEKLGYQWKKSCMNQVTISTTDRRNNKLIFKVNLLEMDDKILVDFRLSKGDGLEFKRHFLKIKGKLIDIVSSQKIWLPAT

[2] = biological target: Protein kinase C eta type (Homo sapiens) (UniProt P24723); assay: Selectivity interaction (KinomeScan (DiscoverX)) EUB0000595a PRKCH; details: at 10 µM
Protein kinase C eta type (Homo sapiens), sequence (P24723 whole entry): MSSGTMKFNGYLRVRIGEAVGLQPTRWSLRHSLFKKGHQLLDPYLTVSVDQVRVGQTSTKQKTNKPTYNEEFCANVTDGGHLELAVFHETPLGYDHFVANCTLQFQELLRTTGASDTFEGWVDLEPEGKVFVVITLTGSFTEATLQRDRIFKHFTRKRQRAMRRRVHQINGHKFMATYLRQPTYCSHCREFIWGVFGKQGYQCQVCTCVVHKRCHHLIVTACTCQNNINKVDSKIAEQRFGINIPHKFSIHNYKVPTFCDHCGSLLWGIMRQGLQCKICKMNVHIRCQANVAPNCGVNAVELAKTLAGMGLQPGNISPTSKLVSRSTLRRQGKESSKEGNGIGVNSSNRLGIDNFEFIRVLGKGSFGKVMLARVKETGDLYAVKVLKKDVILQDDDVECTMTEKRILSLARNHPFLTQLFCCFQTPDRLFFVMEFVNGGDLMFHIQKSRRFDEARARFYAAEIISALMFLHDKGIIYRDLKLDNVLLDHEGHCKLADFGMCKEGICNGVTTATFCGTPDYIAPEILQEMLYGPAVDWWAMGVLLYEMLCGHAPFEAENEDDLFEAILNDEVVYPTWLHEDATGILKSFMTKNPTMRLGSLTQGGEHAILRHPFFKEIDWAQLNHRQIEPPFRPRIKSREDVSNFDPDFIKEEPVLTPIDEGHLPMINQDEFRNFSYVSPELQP

[3] = biological target: T2, Serine/threonine-protein kinase LATS2 (Homo sapiens) (UniProt Q9NRM7); details: at 10 µM
T2 sequence (whole entry): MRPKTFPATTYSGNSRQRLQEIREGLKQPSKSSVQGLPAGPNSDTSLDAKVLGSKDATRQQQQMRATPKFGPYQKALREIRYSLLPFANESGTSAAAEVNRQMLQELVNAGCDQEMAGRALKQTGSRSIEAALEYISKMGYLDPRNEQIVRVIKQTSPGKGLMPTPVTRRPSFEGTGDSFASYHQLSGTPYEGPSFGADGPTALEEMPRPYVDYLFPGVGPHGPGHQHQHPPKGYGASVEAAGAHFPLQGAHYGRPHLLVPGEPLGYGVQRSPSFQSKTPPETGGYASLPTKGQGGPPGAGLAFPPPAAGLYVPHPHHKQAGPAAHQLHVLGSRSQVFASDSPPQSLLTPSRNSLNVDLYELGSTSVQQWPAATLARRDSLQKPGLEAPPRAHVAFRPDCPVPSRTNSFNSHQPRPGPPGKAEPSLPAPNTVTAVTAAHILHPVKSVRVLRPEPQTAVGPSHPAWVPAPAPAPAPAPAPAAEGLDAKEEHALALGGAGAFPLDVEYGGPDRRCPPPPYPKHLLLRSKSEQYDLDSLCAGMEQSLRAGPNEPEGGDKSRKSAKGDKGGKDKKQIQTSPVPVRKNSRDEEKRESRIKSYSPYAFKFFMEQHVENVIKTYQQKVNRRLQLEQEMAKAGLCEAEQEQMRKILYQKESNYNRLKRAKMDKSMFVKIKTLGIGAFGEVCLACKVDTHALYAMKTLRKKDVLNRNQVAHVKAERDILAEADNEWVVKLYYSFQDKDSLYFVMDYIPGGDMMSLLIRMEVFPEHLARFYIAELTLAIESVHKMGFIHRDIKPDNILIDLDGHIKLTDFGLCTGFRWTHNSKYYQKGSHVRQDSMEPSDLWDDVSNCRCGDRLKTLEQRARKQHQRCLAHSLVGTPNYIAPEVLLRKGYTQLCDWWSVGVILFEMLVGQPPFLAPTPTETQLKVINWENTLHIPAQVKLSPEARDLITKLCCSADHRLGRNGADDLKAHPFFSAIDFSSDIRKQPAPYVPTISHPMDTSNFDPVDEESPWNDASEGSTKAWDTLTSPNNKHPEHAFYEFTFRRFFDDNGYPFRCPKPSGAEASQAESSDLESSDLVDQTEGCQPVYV

[4] = biological target: cAMP-dependent protein kinase catalytic subunit alpha (Homo sapiens, UniProt P17612); assay: Selectivity interaction (KinomeScan (DiscoverX)) EUB0000229b PRKACA; details: at 10 µM
[5] = biological target: CDK3/cyclin E (Homo sapiens) (UniProt P24864+O96020+Q00526); assay: Selectivity interaction (Upstate Kinase Profiler service (Millipore)) EUB0000056c CDK3; type: protein-complex assay; details: at 1 µM
[6] = biological target: ALK tyrosine kinase receptor (Homo sapiens, UniProt Q9UM73); assay: Selectivity interaction (KinomeScan (DiscoverX)) EUB0000655a ALK; details: at 10 µM
ALK tyrosine kinase receptor, sequence (Q9UM73 19-1620 limits assumed): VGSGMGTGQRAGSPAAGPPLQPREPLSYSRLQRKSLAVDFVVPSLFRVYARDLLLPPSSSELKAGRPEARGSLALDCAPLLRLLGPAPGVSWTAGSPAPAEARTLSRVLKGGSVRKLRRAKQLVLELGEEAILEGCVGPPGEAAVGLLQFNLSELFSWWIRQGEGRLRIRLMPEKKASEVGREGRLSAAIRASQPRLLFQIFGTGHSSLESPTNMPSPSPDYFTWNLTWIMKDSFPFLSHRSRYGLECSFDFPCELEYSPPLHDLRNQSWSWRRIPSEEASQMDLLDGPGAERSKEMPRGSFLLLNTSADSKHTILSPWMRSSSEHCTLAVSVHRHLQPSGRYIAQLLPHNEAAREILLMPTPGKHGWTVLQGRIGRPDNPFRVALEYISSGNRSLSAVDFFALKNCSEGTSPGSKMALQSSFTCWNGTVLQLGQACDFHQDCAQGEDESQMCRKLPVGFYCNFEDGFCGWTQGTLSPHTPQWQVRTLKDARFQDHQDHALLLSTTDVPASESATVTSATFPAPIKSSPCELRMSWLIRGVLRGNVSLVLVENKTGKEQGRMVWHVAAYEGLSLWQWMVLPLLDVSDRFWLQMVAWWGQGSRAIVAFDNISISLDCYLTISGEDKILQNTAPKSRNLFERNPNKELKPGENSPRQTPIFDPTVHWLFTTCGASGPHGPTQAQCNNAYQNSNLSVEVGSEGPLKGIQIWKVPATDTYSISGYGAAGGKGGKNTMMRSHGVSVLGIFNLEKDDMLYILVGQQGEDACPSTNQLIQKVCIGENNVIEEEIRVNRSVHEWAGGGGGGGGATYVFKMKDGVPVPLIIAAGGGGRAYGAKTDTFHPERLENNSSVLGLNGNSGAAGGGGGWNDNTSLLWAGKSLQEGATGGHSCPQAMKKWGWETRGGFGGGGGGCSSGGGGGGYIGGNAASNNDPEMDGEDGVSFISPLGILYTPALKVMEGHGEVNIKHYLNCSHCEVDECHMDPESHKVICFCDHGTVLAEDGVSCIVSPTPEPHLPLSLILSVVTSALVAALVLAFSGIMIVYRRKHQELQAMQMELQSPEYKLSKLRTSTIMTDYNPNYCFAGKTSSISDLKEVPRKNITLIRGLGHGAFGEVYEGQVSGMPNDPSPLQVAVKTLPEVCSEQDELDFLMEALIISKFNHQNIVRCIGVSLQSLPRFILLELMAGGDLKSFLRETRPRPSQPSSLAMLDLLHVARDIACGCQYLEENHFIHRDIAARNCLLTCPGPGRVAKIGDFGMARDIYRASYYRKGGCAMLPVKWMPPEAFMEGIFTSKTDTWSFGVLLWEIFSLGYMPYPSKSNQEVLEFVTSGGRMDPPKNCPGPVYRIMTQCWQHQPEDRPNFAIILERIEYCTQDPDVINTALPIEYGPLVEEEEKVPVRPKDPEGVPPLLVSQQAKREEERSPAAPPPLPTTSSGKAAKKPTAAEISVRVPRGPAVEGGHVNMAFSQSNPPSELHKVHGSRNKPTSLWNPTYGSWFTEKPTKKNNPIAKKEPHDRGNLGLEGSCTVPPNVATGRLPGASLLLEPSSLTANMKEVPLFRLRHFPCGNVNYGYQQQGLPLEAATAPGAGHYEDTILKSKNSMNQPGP

[7] = biological target: Receptor tyrosine-protein kinase erbB-2 (Homo sapiens, UniProt P04626); assay: Selectivity interaction (KinomeScan (DiscoverX)) EUB0001619a ERBB2; details: at 1 µM
Receptor tyrosine-protein kinase erbB-2, sequence (P04626 whole entry): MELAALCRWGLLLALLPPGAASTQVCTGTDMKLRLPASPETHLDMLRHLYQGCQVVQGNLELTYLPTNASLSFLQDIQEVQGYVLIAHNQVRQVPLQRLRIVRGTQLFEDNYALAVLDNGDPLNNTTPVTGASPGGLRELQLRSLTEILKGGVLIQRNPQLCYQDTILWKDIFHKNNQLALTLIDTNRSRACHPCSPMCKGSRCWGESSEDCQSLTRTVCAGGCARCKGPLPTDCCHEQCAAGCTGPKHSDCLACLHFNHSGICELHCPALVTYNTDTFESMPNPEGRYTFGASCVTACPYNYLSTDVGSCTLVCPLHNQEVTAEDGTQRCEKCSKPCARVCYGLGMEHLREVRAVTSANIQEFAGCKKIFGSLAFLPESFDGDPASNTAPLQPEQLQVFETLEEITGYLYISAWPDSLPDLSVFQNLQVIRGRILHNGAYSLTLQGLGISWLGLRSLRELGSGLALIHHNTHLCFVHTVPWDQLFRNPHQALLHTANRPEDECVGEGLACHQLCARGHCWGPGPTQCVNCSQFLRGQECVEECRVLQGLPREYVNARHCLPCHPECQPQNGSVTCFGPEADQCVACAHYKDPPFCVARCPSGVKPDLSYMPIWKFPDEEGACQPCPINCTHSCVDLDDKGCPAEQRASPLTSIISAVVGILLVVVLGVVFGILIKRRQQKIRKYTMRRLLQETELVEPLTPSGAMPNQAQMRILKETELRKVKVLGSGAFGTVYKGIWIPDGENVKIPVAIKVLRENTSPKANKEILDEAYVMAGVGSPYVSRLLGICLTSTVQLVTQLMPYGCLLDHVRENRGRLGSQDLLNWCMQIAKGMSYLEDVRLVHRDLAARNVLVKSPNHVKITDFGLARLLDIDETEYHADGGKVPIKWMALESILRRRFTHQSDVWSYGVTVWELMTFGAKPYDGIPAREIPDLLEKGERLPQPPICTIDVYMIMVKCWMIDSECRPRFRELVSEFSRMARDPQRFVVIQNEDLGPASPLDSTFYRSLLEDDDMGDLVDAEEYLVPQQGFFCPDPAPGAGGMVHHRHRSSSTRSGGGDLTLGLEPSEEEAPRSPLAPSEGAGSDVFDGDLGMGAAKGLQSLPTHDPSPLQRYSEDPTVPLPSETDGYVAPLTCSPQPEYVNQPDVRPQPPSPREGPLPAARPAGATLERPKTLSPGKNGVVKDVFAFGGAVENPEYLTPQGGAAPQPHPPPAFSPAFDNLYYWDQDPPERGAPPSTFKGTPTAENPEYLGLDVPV

[8] = biological target: Dual specificity protein kinase CLK2 (Homo sapiens, UniProt P49760); assay: Selectivity interaction (KinomeScan (DiscoverX)) EUB0000618a CLK2; details: at 10 µM
Dual specificity protein kinase CLK2, sequence (P49760 whole entry, looked up): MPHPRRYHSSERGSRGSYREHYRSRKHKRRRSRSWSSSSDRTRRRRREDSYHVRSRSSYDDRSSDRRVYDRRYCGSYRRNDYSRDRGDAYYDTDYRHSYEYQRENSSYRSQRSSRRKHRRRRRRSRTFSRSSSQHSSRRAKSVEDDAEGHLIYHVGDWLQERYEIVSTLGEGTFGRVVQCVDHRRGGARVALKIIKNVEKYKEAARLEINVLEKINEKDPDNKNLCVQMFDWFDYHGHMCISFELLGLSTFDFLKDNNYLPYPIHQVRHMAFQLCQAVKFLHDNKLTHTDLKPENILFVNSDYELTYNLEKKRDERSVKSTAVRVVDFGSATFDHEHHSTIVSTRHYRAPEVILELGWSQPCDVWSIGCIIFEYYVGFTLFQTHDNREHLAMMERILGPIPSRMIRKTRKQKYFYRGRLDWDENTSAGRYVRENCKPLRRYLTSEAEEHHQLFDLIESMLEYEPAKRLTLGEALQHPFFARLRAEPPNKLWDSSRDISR

[9] = biological target: T3, Serine/threonine-protein kinase BRSK2 (Homo sapiens) (UniProt Q8IWQ3); assay: Selectivity interaction (SelectScreen profiling (Invitrogen)) EUB0000607a BRSK2; details: at 2 µM
T3 sequence (whole entry): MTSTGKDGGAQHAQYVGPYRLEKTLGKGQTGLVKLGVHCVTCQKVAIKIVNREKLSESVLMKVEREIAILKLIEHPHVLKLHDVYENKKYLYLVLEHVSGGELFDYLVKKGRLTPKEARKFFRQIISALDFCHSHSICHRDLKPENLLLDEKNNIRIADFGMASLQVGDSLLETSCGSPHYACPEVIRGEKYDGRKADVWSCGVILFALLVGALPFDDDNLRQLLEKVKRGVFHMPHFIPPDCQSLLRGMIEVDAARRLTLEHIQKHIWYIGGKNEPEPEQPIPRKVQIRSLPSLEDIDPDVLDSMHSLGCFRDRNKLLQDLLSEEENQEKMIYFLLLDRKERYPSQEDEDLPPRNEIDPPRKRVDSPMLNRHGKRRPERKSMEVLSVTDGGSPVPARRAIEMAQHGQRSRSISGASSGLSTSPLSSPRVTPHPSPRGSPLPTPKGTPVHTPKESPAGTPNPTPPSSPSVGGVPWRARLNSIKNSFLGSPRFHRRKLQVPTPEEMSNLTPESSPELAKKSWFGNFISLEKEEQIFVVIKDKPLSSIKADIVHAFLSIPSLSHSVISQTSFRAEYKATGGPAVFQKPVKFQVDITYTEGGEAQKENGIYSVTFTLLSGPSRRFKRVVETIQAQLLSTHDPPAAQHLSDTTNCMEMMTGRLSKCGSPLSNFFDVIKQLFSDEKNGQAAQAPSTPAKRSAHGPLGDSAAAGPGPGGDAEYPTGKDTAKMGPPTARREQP

`CC[C@@H]1[C@H](F)C(=O)N[C@@H]1COc1nccc2cc(C(N)=O)c(OC)cc12` [ZIMLOVISERTIB] was tested, and the % of inhibition ([1]; at 0.01 µM) was -7.6%, the % of inhibition ([1]; at 0.04 µM) was 11.8% and the % of inhibition ([1]; at 0.2 µM) was -8.5%. For the same compound, the % of inhibition ([1]; at 1 µM) was 0.6% and the % of inhibition ([1]; at 5 µM) was -18.5%.

For `COCC(=O)NC/C=C/c1ccc2ncnc(Nc3ccc(Oc4ccc(C)nc4)c(C)c3)c2c1` [CP-724714], the % of control [2] was 100% and the % of control [3] was 100%.

In the case of `COc1cc(N(C)c2ccnc3ccc(C(F)(F)F)cc23)cc(OC)c1OC`, the % binding [4] is reported as 100%.

Work on `Cc1ccc(-c2ccc3c(ccc4sc5c(c43)NC[C@@H](C)NC5=O)n2)cn1` yielded a % of inhibition [5] of 5%.

Compound `CN(C)CCOc1ccc(-c2nc(-c3ccncc3)c(-c3ccc4c(c3)CC/C4=N\O)[nH]2)cc1` has a % of control [6] of 45%.

`N#Cc1cccc(-c2c[nH]c3ncnc(N4CCOCC4)c23)c1` showed a % of control [7] of 73%.

With `O[C@H]1CC[C@H](Nc2ncc3nc(Nc4c(F)cc(F)cc4F)n([C@H]4CCOC4)c3n2)CC1` the % of control [8] was 7.7%.

Work on `CNC(=O)Nc1ccc(-c2nc(N3CC4CCC(C3)O4)c3cnn(C4CCC5(CC4)OCCO5)c3n2)cc1` yielded a % of inhibition [9] of 1%.
